Paper PMC7660650, “Chemical Starting Matter for HNF4α Ligand Discovery and Chemogenomics” (International Journal of Molecular Sciences, 2020)
Where “and” joins values, the source holds several entries; their conditions need not be identical. Equal entries are not always repeated.

Biological target: T1, Gal4-HNF4α (human HNF4α LBD) (Homo sapiens, UniProt P41235)
T1 construct: uniprot entry: P41235-1, residues 142-377; expressed in transfected cells; host or cells: HEK293T
T1 sequence (P41235 142-377): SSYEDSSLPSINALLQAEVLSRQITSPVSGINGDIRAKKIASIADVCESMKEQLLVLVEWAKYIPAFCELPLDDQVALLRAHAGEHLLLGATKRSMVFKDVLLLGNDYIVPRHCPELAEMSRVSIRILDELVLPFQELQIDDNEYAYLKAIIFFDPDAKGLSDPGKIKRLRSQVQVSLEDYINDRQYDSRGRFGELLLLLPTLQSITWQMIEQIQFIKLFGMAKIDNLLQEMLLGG
Assay: Hybrid Gal4-HNF4α reporter gene assay in transiently transfected HEK293T cells
Type: cell-based
Settings: not given

Structure (SMILES)	HNF4a-screening_activity_(mean_of_n=2)
Nc1cc2ccccc2oc1=O [Prestw-Frag-1001, Nc1cc2ccccc2oc1=O]	0.9336 and 1.001

Same assay, conditions: Table S1, primary screening, 50 µM

Structure (SMILES)	HNF4a-screening_activity_(mean_of_n=2)
CN1C2CCC1CC(O)C2 (stereo not shown) [Prestw-Frag-0608, CN1C2CCC1CC(O)C2]	1.089 and 1.102
CC(C)(C)NCC(O)COc1ccccc1C1CCCC1 (stereo not shown) [Prestw-Frag-0674, CC(C)(C)NCC(O)COc1ccccc1C1CCCC1]	1.434
O=c1ccc2ccccc2o1 [Prestw-Frag-1000, O=c1ccc2ccccc2o1]	1.227
Cc1cc(-c2ccccc2)nnc1N [Prestw-Frag-1003, Cc1cc(nnc1N)-c1ccccc1]	1.014 and 1.217
NC(=O)NS(=O)(=O)c1ccccc1 [Prestw-Frag-1006, NC(=O)NS(=O)(=O)c1ccccc1]	1.153 and 1.01
CC(=O)Nc1nncs1 [Prestw-Frag-1008, CC(=O)Nc1nncs1]	1.066 and 0.8521
Nc1nncs1 [Prestw-Frag-1009, Nc1nncs1]	1.011
COC(=O)C(c1ccccc1)c1ccccc1 [Prestw-Frag-1013, COC(=O)C(c1ccccc1)c1ccccc1]	1.409 and 1.217
c1ccc2c3c([nH]c2c1)CNCC3 [Prestw-Frag-1014, C1Cc2c(CN1)[nH]c1ccccc21]	0.999 and 1.943
C[N+](C)(CCO)Cc1ccccc1 [Prestw-Frag-1017, C[N+](C)(CCO)Cc1ccccc1]	0.8969 and 1.169
NC(=O)Cc1cccs1 [Prestw-Frag-1019, NC(=O)Cc1cccs1]	1.073 and 1.154
Cc1cc(=O)n(-c2ccccc2)[nH]1 [Prestw-Frag-1028, Cc1cc(=O)n([nH]1)-c1ccccc1]	1.027
NCCCCc1ccccc1 [Prestw-Frag-1031, NCCCCc1ccccc1]	1.332
Cn1nnnc1S [Prestw-Frag-1032, Cn1nnnc1S]	1.09
COc1ccc(Cc2ccc(OC)cc2)cc1 [Prestw-Frag-1033, COc1ccc(Cc2ccc(OC)cc2)cc1]	1.259 and 1.114
NCc1c(N)ccc(Cl)c1Cl [Prestw-Frag-1039, NCc1c(N)ccc(Cl)c1Cl]	1.196 and 1.044
O=C(O)c1ccccc1O [Prestw-Frag-1045, OC(=O)c1ccccc1O]	1.058
CCC(=O)Nc1ncnc2[nH]cnc12 [Prestw-Frag-1047, CCC(=O)Nc1ncnc2[nH]cnc12]	0.8266 and 1.023
Nc1nc2ccccc2n1Cc1ccc(F)cc1 [Prestw-Frag-1050, Nc1nc2ccccc2n1Cc1ccc(F)cc1]	0.6752 and 1.069
COc1ccc(CCN2CCC(N)CC2)cc1 [Prestw-Frag-1051, COc1ccc(CCN2CCC(N)CC2)cc1]	1.433
CC(C)(Oc1ccccc1)C(=O)O [Prestw-Frag-1053, CC(C)(Oc1ccccc1)C(O)=O]	0.9983 and 1.387
Nc1ccc[nH]c1=O [Prestw-Frag-1060, Nc1ccc[nH]c1=O]	1.316 and 1.113
COc1cc2c(cc1O)CCN[C@H]2C [Prestw-Frag-1063, COc1cc2[C@H](C)NCCc2cc1O]	1.128

Structure (SMILES)	HNF4a-screening_activity_(mean_of_n=2)
COc1ccc(CCN)cc1O [Prestw-Frag-1064, COc1ccc(CCN)cc1O]	1.012
O=[N+]([O-])c1ccc(CO)cc1 [Prestw-Frag-1071, OCc1ccc(cc1)[N+]([O-])=O]	1.036 and 1.173
CCC1=C(C)CN(C(=O)NCCc2ccccc2)C1=O [Prestw-Frag-1075, CCC1=C(C)CN(C(=O)NCCc2ccccc2)C1=O]	1.214
NCCc1ccc(S(N)(=O)=O)cc1 [Prestw-Frag-1076, NCCc1ccc(cc1)S(N)(=O)=O]	1.134 and 1.077
CC(=O)c1cc(Cl)ccc1O [Prestw-Frag-1083, CC(=O)c1cc(Cl)ccc1O]	1.17
CCN(CC)CCNC(=O)c1ccccc1O [Prestw-Frag-1086, CCN(CC)CCNC(=O)c1ccccc1O]	1.563 and 0.9485
O=c1[nH]c2ccccc2o1 [Prestw-Frag-1087, O=c1[nH]c2ccccc2o1]	1.002 and 1.32
CC(=O)c1ccc(N2CCNCC2)c(F)c1 [Prestw-Frag-1094, CC(=O)c1ccc(N2CCNCC2)c(F)c1]	1.1 and 1.293
Cc1ncsc1CCO [Prestw-Frag-1098, Cc1ncsc1CCO]	1.111
NC(=O)[C@H](N)c1ccccc1 [Prestw-Frag-1099, N[C@@H](C(N)=O)c1ccccc1]	1.079
Clc1ccc2c(c1)Nc1ccccc1CC2 [Prestw-Frag-1101, Clc1ccc2CCc3ccccc3Nc2c1]	2.203
OC(c1ccccc1)c1ccc(Cl)cc1 (stereo not shown) [Prestw-Frag-1106, OC(c1ccccc1)c1ccc(Cl)cc1]	0.8543
c1ccc(N2CCNCC2)nc1 [Prestw-Frag-1110, C1CN(CCN1)c1ccccn1]	1.308
COC(=O)c1scc(C)c1N [Prestw-Frag-1111, COC(=O)c1scc(C)c1N]	1.183
CCN(Cc1ccccc1)c1ccccc1 [Prestw-Frag-1121, CCN(Cc1ccccc1)c1ccccc1]	1.173
OC(c1ccccc1)c1ccccc1 [Prestw-Frag-1122, OC(c1ccccc1)c1ccccc1]	1.034
NCC(CC(=O)O)c1ccccc1 (stereo not shown) [Prestw-Frag-1125, NCC(CC(O)=O)c1ccccc1]	0.6886
O=C(O)CCc1ccc(Cl)cc1 [Prestw-Frag-1126, OC(=O)CCc1ccc(Cl)cc1]	0.7294
Cc1oncc1C(N)=O [Prestw-Frag-1128, Cc1oncc1C(N)=O]	0.9735 and 0.9722
Cc1c(O)c2ccccc2oc1=O [Prestw-Frag-1130, Cc1c(O)c2ccccc2oc1=O]	0.9979
O=c1cc(O)c2ccccc2o1 [Prestw-Frag-1131, Oc1cc(=O)oc2ccccc12]	1.185
COc1ccc2ccncc2c1 [Prestw-Frag-1133, COc1ccc2ccncc2c1]	1.332
Cn1c(=O)[nH]c2nc[nH]c2c1=O [Prestw-Frag-1138, Cn1c(=O)[nH]c2nc[nH]c2c1=O]	0.9492

Structure (SMILES)	HNF4a-screening_activity_(mean_of_n=2)
CNC(C)(C)Cc1ccccc1 [Prestw-Frag-1141, CNC(C)(C)Cc1ccccc1]	1.206
COc1cc(N)ncn1 [Prestw-Frag-1154, COc1cc(N)ncn1]	1.214
Oc1cccc2c1CCCC2 [Prestw-Frag-1156, Oc1cccc2CCCCc12]	0.9426
Cc1nnc(N)s1 [Prestw-Frag-1161, Cc1nnc(N)s1]	1.123
C(=C\c1ccccc1)/CN1CCNCC1 [Prestw-Frag-1163, C(\C=C\c1ccccc1)N1CCNCC1]	1.316
c1ccc2[nH]c(CN3CCCC3)nc2c1 [Prestw-Frag-1164, C(N1CCCC1)c1nc2ccccc2[nH]1]	0.7439 and 0.7907
Clc1ccc(Cn2cnc3ccccc32)cc1 [Prestw-Frag-1165, Clc1ccc(Cn2cnc3ccccc23)cc1]	0.6294 and 0.7204
COc1ccc(N)nn1 [Prestw-Frag-1167, COc1ccc(N)nn1]	1.35
OC(Cn1ccnc1)c1ccc(Cl)cc1Cl (stereo not shown) [Prestw-Frag-1182, OC(Cn1ccnc1)c1ccc(Cl)cc1Cl]	1.1
COc1cc2ccncc2cc1OC [Prestw-Frag-1183, COc1cc2ccncc2cc1OC]	1.218
Nc1ccc(Cl)nn1 [Prestw-Frag-1184, Nc1ccc(Cl)nn1]	0.9468
CN1CCC[C@H]1c1cccnc1 [Prestw-Frag-1187, CN1CCC[C@H]1c1cccnc1]	1.172
Cc1c(N)cccc1C(F)(F)F [Prestw-Frag-1189, Cc1c(N)cccc1C(F)(F)F]	1.319
O=C(O)c1cccnc1Nc1ccccc1 [Prestw-Frag-1191, OC(=O)c1cccnc1Nc1ccccc1]	1.24
c1ccc(C(CCN2CCCCC2)c2ccccc2)cc1 [Prestw-Frag-1193, C(CN1CCCCC1)C(c1ccccc1)c1ccccc1]	0.8943 and 1.009
CC(Oc1ccccc1)C(N)=O (stereo not shown) [Prestw-Frag-1200, CC(Oc1ccccc1)C(N)=O]	0.9571 and 0.9481
CN1CCN(c2nccc(N)n2)CC1 [Prestw-Frag-1204, CN1CCN(CC1)c1nccc(N)n1]	1.248
CS(=O)(=O)c1ccc(N)cc1 [Prestw-Frag-1214, CS(=O)(=O)c1ccc(N)cc1]	1.202
CCCCOc1cc(C(=O)NC)c2ccccc2n1 [Prestw-Frag-1228, CCCCOc1cc(C(=O)NC)c2ccccc2n1]	0.8368 and 0.967
COc1cccc2c1CCCC2=O [Prestw-Frag-1236, COc1cccc2C(=O)CCCc12]	1.287
Oc1ccc(-c2ccc(F)cc2F)cc1 [Prestw-Frag-1237, Oc1ccc(cc1)-c1ccc(F)cc1F]	0.9944
O=C(O)c1cccc(-c2ccc(F)cc2F)c1 [Prestw-Frag-1238, OC(=O)c1cccc(c1)-c1ccc(F)cc1F]	1.01
O=C(O)c1cc(-c2ccc(F)cc2)ccc1O [Prestw-Frag-1239, OC(=O)c1cc(ccc1O)-c1ccc(F)cc1]	1.018 and 1.049
